Experimental data published in patent US20100069340A1, “PHARMACEUTICAL COMPOSITIONS OF AN SRC KINASE INHIBITOR AND AN AROMATASE INHIBITOR” (Wyeth, priority 2008, published 2010).
Where two headings read alike, the source gives them in different places.

Tests used:
Assay type in all cases: cell-based
BT-20 (ER neg) = test: Cell proliferation assay (CellTiter Glo), BT-20; details: for IC50: Homo sapiens, BT-20, 168 h, 7 Day assay, charcoal stripped serum, no phenol red, plateau cell number at 5 μM used
Protocol: (§1) Cell lines were obtained from ATCC. Estrogen was obtained from SIGMA, 4-hydroxytamoxifen was obtained from SIGMA, Bosutinib was used for these studies. Charcoal-stripped serum and phenol red-free medium was obtained from Invitrogen. CellTiter Glo was obtained from Promega.
(§2) Cell cultures. Proliferation assays with cells in complete fetal calf serum were performed with medium containing phenol red. For all assays examining estrogen-dependence, cells were cultured in phenol red-free medium; DMEM/F12 (MCF7), RPMI1640 (MDA-MB-361, T47D) MEM (BT20, MDA-MB-231) McCoys5A modified (SKBR3), Leibowitz' L15 medium supplemented with 10 ng/mL insulin (MDA-MB-435 and MDA-MB-468) with 10% fetal bovine serum supplemented with glutamine and gentamicin. For proliferation assays, trypsinized cells were subjected to three cycles of centrifugation and resuspension in phenol red-free medium supplemented with charcoal stripped medium (5% final), glutamine and Pen/Strep. Cells were plated on day 0, with or without estrogen (10 nM final concentration). On day 1, 4-hydroxytamoxifen and SKI-606 or DMSO were added as a serial dilution. Cells were incubated for 7 days, after which CellTiter Glo (Promega) was added as recommended by the manufacturer. After mixing and two hours incubation on the bench, plates were read on an Envision reader. […] The 10 uM data point was dropped for these two lines since there was a clear plateau prior to the sharp drop in luminescence observed at 10 uM compound. The IC50 was calculated using a floating minima corresponding to the lowest luminescence value at 5 uM.
(§3) Cell proliferation assays were performed in two formats; a three day proliferation assay in fully supplemented medium with phenol red, and a 7 day proliferation assay in phenol red free medium supplemented with charcoal-stripped medium. […] ER positive T47D cells were slightly more sensitive to SKI-606 in the presence of estrogen. BT20 cells were equally sensitive to SKI-606 in stripped serum medium, regardless of whether estrogen was present. […]

MDA-MB-231 (ER neg) = test: Cell proliferation assay (CellTiter Glo), MDA-MB-231; details: Homo sapiens
Protocol: as §1, §2, §3

MDA-MB-361 = test: Cell proliferation assay (CellTiter Glo), MDA-MB-361; details: for IC50: Homo sapiens
Protocol: as §1, §2
(§4) Cell proliferation assays were performed in two formats; a three day proliferation assay in fully supplemented medium with phenol red, and a 7 day proliferation assay in phenol red free medium supplemented with charcoal-stripped medium. […] ER positive T47D cells were slightly more sensitive to SKI-606 in the presence of estrogen. BT20 cells were equally sensitive to SKI-606 in stripped serum medium, regardless of whether estrogen was present.
(§5) Proliferation data for SKI-606 in various breast tumor lines in complete medium (10% FCS) and charcoal stripped serum with no phenol red (no E2, E2) with and without 10 nM estrogen. The complete medium data were obtained in 3-day assays, while stripped serum assays were extended for 7 days with one change of medium at day 5. The IC50 values for the BT20 line was calculated using the “plateau” cell number evident at 5 μM SKI-606.

MCF7 = test: Cell proliferation assay (CellTiter Glo), MCF7; details: for IC50: Homo sapiens
Protocol: as §1, §2, §4, §5

T47D = test: Cell proliferation assay (CellTiter Glo), T47D; details: Homo sapiens, 168 h, 7 Day assay, charcoal stripped serum, no phenol red
Protocol: as §1
as §2, with “Cells were incubated for 7 days, after which CellTiter Glo (Promega) was added as recommended by the manufacturer.” left out, “The IC50 was calculated using a floating minima corresponding to the lowest luminescence value at 5 uM.” left out

ER = ER signaling in MCF-7 cells (ERE-tk-luciferase, ERα levels)
Protocol: Radis Procedure 2484, MCF-7 model was used for the measurement of in vitro estrogenic activity. MCF-7 cells were passaged twice a week in D-MEM/F-12 medium containing 10% (v/v) heat-inactivated fetal bovine serum, 1% (v/v) Penicillin-Streptomycin, and 2 mM glutaMax-1. The cells were plated with growth medium at 25,000/well into 96 well plates and incubated at 37° C. overnight.
The cells were infected for 2 hr at 37° C. with 50 μl/well of a 1:10 dilution of adenovirus 5-ERE-tk-luciferase in phenol red-free D-MEM/F-12 medium containing 10% (v/v) heat-inactived charcoal-stripped fetal bovine serum, 1% (v/v) Penicillin-Streptomycin, 2 mM glutaMax-1, 1 mM sodium pyruvate. The wells are then washed once with 150 μl of experimental medium. Finally, the cells are treated for 24 hr at 37° C. in replicates of 8 wells/treatment with 150 μl/well of vehicle (<0.1% v/v DMSO) or compound that is diluted >1000-fold into experimental medium. SKI-606 was tested in a dose response assay in the presence of 0.1 nM 17β-estradiol to stimulate ERE-luc.
After treatment, the cells are lysed on a shaker for 15 min with 25 μl/well of 1× cell culture lysis reagent (Promega Corporation). The cell lysates (20 μl) were transferred to a 96 well luminometer plate, and luciferase activity were measured in a MicroLumat LB 96 P luminometer (EG & G Berthold) using 100 μl/well of luciferase substrate (Promega Corporation). […]

[1] = 10 nM estrogen, read-out: IC50 (uM) E2
[2] = without estrogen, read-out: IC50 (uM) no E2

`COc1cc(Nc2c(C#N)cnc3cc(OCCCN4CCN(C)CC4)c(OC)cc23)c(Cl)cc1Cl` [bosutinib] was tested, and the “toxicity at maximal concentration” value (BT-20 (ER neg); 10 uM SKI-606, BT20 cells) was “some toxicity was seen”, the IC50 (BT-20 (ER neg); [1]) was 0.24 µM and the IC50 (BT-20 (ER neg); [2]) was 0.28 µM. The IC50 (MDA-MB-231 (ER neg); MDA-MB-231, 72 h, 3 Day assay, complete medium (10% FCS), read-out: IC50 (uM) 10% FCS) was 4.3 µM, the IC50 (MDA-MB-231 (ER neg); MDA-MB-231, 168 h, 7 Day assay, charcoal stripped serum, no phenol red, 10 nM estrogen, read-out: IC50 (uM) E2) was 5.05 µM and the IC50 (MDA-MB-231 (ER neg); MDA-MB-231, 168 h, 7 Day assay, charcoal stripped serum, no phenol red, without estrogen, read-out: IC50 (uM) no E2) was 5.1 µM. For the same compound, the “toxicity at maximal concentration” value (MDA-MB-361; 10 uM SKI-606, MDA-MB-361 cells) was “some toxicity was seen”, the IC50 (MDA-MB-361; MDA-MB-361, 72 h, 3 Day assay, complete medium (10% FCS), read-out: IC50 (uM) 10% FCS) was 2.5 µM and the IC50 (MDA-MB-361; MDA-MB-361, 168 h, 7 Day assay, charcoal stripped serum, no phenol red, 10 nM estrogen, read-out: IC50 (uM) E2) was 0.38 µM. For the same compound, the IC50 (MDA-MB-361; MDA-MB-361, 168 h, 7 Day assay, charcoal stripped serum, no phenol red, without estrogen, read-out: IC50 (uM) no E2) was 0.74 µM, the “effect on estrogen-dependent and estrogen-independent growth” value (MDA-MB-361; MDA-MB-361) was “inhibited estrogen-dependent and estrogen-independent growth” and the IC50 (MCF7; MCF7, 72 h, 3 Day assay, complete medium (10% FCS), read-out: IC50 (uM) 10% FCS) was 6.5 µM. The IC50 (MCF7; MCF7, 168 h, 7 Day assay, charcoal stripped serum, no phenol red, 10 nM estrogen, read-out: IC50 (uM) E2) was 0.86 µM, the IC50 (MCF7; MCF7, 168 h, 7 Day assay, charcoal stripped serum, no phenol red, without estrogen, cells did not grow well, data less reliable, read-out: IC50 (uM) no E2) was 0.08 µM and the “effect on estrogen-dependent and estrogen-independent growth” value (MCF7; MCF7) was “inhibited estrogen-dependent and estrogen-independent growth”. The IC50 (T47D; [1]) was 1.28 µM, the IC50 (T47D; [2]) was 2.85 µM and the “genomic and non-genomic signaling by ER” value (ER) was “inhibits both genomic and non-genomic signaling by ER”.
